Results taken from publication PMC7281280, “Is the Way to Fight Cancer Paved with Gold? Metal-Based Carbene Complexes with Multiple and Fascinating Biological Features” (Pharmaceuticals, 2020).
Read-outs that look alike come from different tables or passages of the source.

Tests used:
MDA-MB-231 cells [1] = test: Immunofluorescence of microtubules, MDA-MB-231; type: cell-based, human; details: at IC50 value, 24 h
Protocol: Cells were grown on glass coverslips in full media, then serum-deprived for 24 h and exposed to compounds for 24 h (concentration equal to its IC50 value). Then, the cells after PBS-washed, were fixed with cold methanol (15 min/−20 °C) and incubated with primary antibody, diluted in blocking solution (4 °C/overnight), as previously described. The mouse anti-β-Actin (69879) and the rabbit anti-β tubulin (9104) were purchased from Santa Cruz Biotechnology and used at 1:100 dilution. Coverslips were then washed 3 times with PBS, then fixed cells were incubated with the secondary antibody Alexa Fluor® 568 conjugate goat-anti-mouse and Alexa Fluor® 488 conjugate goat-anti-rabbit (1:500, Thermo Fisher Scientific, Waltham, MA, USA). Nuclei were stained using DAPI (Sigma–Aldrich, Mila, Italy) for 10 min at a concentration of 0.2 μg/mL then washed 3 times with PBS. Fluorescence was detected using a fluorescence microscope (Leica DM 6000). LAS-X software was used to acquire and process all images.
Figure 5 Immunofluorescence studies. […] Panels A: DAPI, excitation/emission wavelength 350 nm/460 nm; panels B: β-tubulin (Alexa Fluor® 488) excitation/emission wavelength 490 nm/515 nm; panels C show a merge. Representative fields are shown.

caspase-8 = details: 5 μM, 24 h, MDA-MB-231 cells
[2] = system: MCF-7 human breast cancer cells; test: MTT cell viability, MCF-7; type: cell-based; details: 72 h, mean ± SD
Protocol: (§1) The six cell lines used in this work (MCF-7, MDA-MB-231, HeLa, […], MCF-10A and Hek-293) were purchased from American Type Culture Collection (ATCC, Manassas, VA, USA). MCF-7 human breast cancer cells, estrogen receptor (ER)-positive, were maintained in Dulbecco’s modified Eagle’s medium/nutrient mixture Ham F-12 (DMEM/F12), supplemented with 10% fetal bovine serum (FBS) and 100 U mL^−1 penicillin/streptomycin. MCF-10A human mammary epithelial cells, were cultured in DMEM/F12 medium, supplemented with 5% horse serum (HS, Thermo Fisher Scientific, Milan, Italy), 100 U mL^−1 penicillin/streptomycin, […] hydrocortisone, 20 ng mL^−1 human epidermal growth factor (hEGF), […] insulin, and […] cholera enterotoxin (Sigma–Aldrich, Milan, Italy). MDA-MB-231 human breast cancer cells, known as triple-negative cells (i.e., not overexpressing human epidermal growth factor receptor 2 (HER2), estrogen and progesterone receptors), were cultured in DMEM/F12 supplemented with 5% FBS, 1% L-glutamine and 100 U mL^−1 penicillin/streptomycin. HeLa human epithelial cervix carcinoma cells, estrogen receptor (ER)-negative, and […] human endometrial adenocarcinoma cells, estrogen receptor (ER)-positive, were maintained in minimum essential Eagle’s Medium (MEM), supplemented with 10% FBS, 1% L-glutamine, 100 U mL^−1 penicillin/streptomycin and 1% Non-Essential Amino Acids (NEAA). Hek-293 human embryonic kidney epithelial cells were cultured in DMEM high glucose (4.5 g L^−1), supplemented with 10% FBS, 1% L-glutamine and 100 U mL^–1 penicillin/streptomycin. Cells were maintained at 37 °C in a humidified atmosphere of 95% air and 5% CO2 and periodically screened for contamination.
(§2) Cell viability has been determined using the 3-(4,5-dimethylthiazol-2-y1)-2,5-diphenyltetrazolium bromide (MTT, Sigma–Aldrich, Milan, Italy) assay. Cells have been seeded on 48-well plates and grown in complete medium. Before being treated, cells have been starved in serum free medium for 24 h for allowing cell cycle synchronization. […] Data are representative of three independent experiments; standard deviations (SD) have been shown.

MDA-MB-231 cells [3] = details: at IC50 value, 24 h
Protocol: At this purpose, we performed immunostaining studies using the mitochondrial probe MitoTracker Deep Red FM and an anti-cytochrome c antibody, to follow the possible release of this protein from the mitochondrial district to the cytoplasm.
The same protocol was performed for mitochondrial staining. […] The primary antibody used in this case was the mouse anti-cytochrome c (556 433), purchased from BD Biosciences. The secondary antibodies used was Alexa Fluor® 488 conjugate goat-anti-mouse (1:500 dilution), purchased from Thermo Fisher Scientific, Waltham, MA, USA.
Images were acquired at 63x magnification and representative fields are shown.

caspases 3/7 = test: Caspase-Glo assay, caspases 3/7; details: 5 μM, 24 h, MDA-MB-231 cells
[4] = system: Hek-293 human embryonic kidney epithelial cells; test: MTT cell viability, normal Hek-293; type: cell-based
Protocol: as §1, §2

MDA-MB-231 cells [5] = test: Muse cell cycle assay; details: at IC50, 72 h
[6] = system: HeLa human epithelial cervix carcinoma cells; test: MTT cell viability, HeLa; type: cell-based; details: 72 h, mean ± SD
Protocol: as §1, §2

[7] = system: ISHIKAWA human endometrial adenocarcinoma cells; test: MTT cell viability, […]; type: cell-based; details: 72 h, mean ± SD
Protocol: as §1, §2

[8] = target: T1, human topoisomerase II (hTopo II) (Homo sapiens, UniProt P11388); test: Human topoisomerase II decatenation assay; type: biochemical; details: 1 μM
T1 construct: purchased topoGEN, Port Orange, FL, USA
T1 sequence (P11388 whole entry): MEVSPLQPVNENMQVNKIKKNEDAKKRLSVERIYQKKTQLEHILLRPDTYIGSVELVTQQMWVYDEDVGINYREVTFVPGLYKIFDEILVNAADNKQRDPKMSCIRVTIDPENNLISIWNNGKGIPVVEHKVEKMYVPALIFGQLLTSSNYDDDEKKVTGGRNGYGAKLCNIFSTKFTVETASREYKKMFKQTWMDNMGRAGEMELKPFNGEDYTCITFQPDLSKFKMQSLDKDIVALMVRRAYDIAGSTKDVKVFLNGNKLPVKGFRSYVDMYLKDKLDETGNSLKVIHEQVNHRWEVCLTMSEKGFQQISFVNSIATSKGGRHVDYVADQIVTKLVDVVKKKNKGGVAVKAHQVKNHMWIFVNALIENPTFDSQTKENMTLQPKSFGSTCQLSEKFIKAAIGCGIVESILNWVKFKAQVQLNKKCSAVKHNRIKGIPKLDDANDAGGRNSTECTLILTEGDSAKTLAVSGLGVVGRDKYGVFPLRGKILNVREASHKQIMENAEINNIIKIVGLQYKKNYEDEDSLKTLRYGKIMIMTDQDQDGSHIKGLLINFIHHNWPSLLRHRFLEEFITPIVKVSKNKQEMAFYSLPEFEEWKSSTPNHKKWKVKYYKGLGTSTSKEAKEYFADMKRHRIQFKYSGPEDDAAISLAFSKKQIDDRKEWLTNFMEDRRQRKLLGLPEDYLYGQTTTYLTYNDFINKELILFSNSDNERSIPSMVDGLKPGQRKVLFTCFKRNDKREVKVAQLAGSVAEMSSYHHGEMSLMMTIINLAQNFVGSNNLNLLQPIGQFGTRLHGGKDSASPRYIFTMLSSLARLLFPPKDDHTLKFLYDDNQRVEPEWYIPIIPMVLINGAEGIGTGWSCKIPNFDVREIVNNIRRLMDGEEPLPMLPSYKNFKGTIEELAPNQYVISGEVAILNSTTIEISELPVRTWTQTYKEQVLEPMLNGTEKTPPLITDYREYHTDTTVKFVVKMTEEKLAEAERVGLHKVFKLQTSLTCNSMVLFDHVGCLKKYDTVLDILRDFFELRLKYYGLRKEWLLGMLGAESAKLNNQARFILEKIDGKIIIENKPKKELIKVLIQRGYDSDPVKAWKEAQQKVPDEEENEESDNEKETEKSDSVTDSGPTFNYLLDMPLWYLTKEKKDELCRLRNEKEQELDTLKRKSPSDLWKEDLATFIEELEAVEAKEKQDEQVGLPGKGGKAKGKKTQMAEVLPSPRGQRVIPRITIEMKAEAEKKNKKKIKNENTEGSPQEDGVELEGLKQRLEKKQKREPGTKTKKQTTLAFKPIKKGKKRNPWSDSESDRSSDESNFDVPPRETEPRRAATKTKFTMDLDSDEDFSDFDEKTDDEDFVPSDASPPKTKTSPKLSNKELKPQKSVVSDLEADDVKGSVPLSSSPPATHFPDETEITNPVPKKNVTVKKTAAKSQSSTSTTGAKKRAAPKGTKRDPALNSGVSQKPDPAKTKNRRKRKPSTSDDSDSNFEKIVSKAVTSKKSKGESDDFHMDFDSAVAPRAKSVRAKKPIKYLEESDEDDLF
Protocol: Decatenated and linear kDNA (Figure 8, lanes 1 and 2) are used as markers.
hTopo II decatenation assays were performed in a final volume of […], as reported by Iacopetta et al., using […] of kinetoplast DNA (kDNA) (topoGEN, Port Orange, FL, USA), tested compounds and 3 units of hTopo II (topoGEN, Port Orange, FL, USA). The reaction products were loaded in an agarose gel with EB. At the end, the gel was washed with distilled water and analyzed using a UV transilluminator. The experiment was repeated three times.
Lane 1 and 2, decatenated and linear kDNA, respectively.

[9] = system: MCF-10A human mammary epithelial cells; test: MTT cell viability, normal MCF-10A; type: cell-based; details: 72 h, mean ± SD
Protocol: as §1, §2

[10] = system: MDA-MB-231 human breast cancer cells; test: MTT cell viability, MDA-MB-231; type: cell-based; details: 72 h, mean ± SD
Protocol: as §1, §2

SMILES: C[n+]1c(Cl)c(Cl)n(CC(O)c2ccccc2)[c]1[Au-][c]1n(CC(O)c2ccccc2)c(Cl)c(Cl)[n+]1C.[Cl][Au-][Cl] (racemic) [AuL7, bis-[4,5-dichloro-(N-methyl-N’(2-hydroxy-2-phenyl)ethyl-imidazole-2-ylidene)gold(I)]^+[dichloro-gold]^−]
- effect on microtubule network, MDA-MB-231 (MDA-MB-231 cells [1]): vinblastine-like mode of action
- caspase-8 activity (caspase-8): unchanged
- IC50 [2]: 5.18 ± 0.4 µM
- cytochrome c localization (MDA-MB-231 cells [3]): cytochrome c release and diffusion into the cytoplasmic compartment
- mitochondrial integrity (MitoTracker Deep Red FM) (MDA-MB-231 cells [3]): loss of mitochondrial structural integrity
- caspases 3/7 activity (caspases 3/7): clear increase
- IC50 ([4]; normal cells, MTT, 72 h, mean ± SD, read-out: IC50 Hek-293): 65 µM
- IC50 ([4]; read-out: IC50 Hek-293 of AuL7 after Quercetin pre-treatment, pre-treatment for 4 h with Quercetin (at 50 μM)): 96.9 ± 1.1 µM
- increase of the percentage of cells in G2/M phase vs DMSO control (MDA-MB-231 cells [5]): 33.2%
- increase of the percentage of cells in S phase vs DMSO control (MDA-MB-231 cells [5]): 16.1%
- IC50 [6]: 31.9 ± 0.5 µM
- IC50 [7]: 29.9 ± 0.9 µM
- inhibition of hTopo II decatenation activity [8]: total blockade of hTopoII activity
- IC50 [9]: > 200 µM
- IC50 MCF-10A [9]: inactive
- IC50 [10]: 2.1 ± 0.7 µM
